Key:
[1] = system: PC-3; test: Cytotoxicity against human PC3 cells assessed as decrease in cell survival after 72 hrs by MTT assay; type: functional, cell-based; settings: for IC50: PC-3, 72 h
[2] = (§1) Cytotoxicity against human LS174 cells assessed as decrease in cell survival after 72 hrs by MTT assay; type: functional, cell-based; settings: LS174, 72 h
[3] = system: LS174; test: as §1; type: functional, cell-based
[4] = system: K562; test: Cytotoxicity against human K562 cells assessed as decrease in cell survival after 72 hrs by MTT assay; type: functional, cell-based; settings: for IC50: K562, 72 h
[5] = Selectivity index, ratio of IC50 for human PBMC to IC50 for human LS174 cells
[6] = system: MCF7; test: Selectivity index, ratio of IC50 for human PBMC to IC50 for human MCF7 cells
[7] = system: K562; test: Selectivity index, ratio of IC50 for human PBMC to IC50 for human K562 cells
[8] = system: HeLa; test: Cytotoxicity against human HeLa cells assessed as decrease in cell survival after 72 hrs by MTT assay; type: functional, cell-based
[9] = system: MCF7; test: Selectivity index, ratio of IC50 for PHA-stimulated human PBMC to IC50 for human MCF7 cells
[10] = system: HeLa; test: Selectivity index, ratio of IC50 for human PBMC to IC50 for human HeLa cells
[11] = system: PBMC; test: Cytotoxicity against PHA-stimulated human PBMC assessed as decrease in cell survival after 72 hrs by MTT assay; type: cell-based
[12] = Selectivity index, ratio of IC50 for PHA-stimulated human PBMC to IC50 for human Fem-X cells; type: functional
[13] = Selectivity index, ratio of IC50 for PHA-stimulated human PBMC to IC50 for human LS174 cells
[14] = system: PBMC; test: Cytotoxicity against human PBMC assessed as decrease in cell survival after 72 hrs by MTT assay; type: cell-based
[15] = system: Fem-X; test: (§2) Cytotoxicity against human Fem-X cells assessed as decrease in cell survival after 72 hrs by MTT assay; type: functional, cell-based
[16] = as §2; type: functional, cell-based
[17] = system: HeLa; test: Selectivity index, ratio of IC50 for PHA-stimulated human PBMC to IC50 for human HeLa cells
[18] = system: PC-3; test: Selectivity index, ratio of IC50 for PHA-stimulated human PBMC to IC50 for human PC3 cells
[19] = system: MCF7; test: Cytotoxicity against human MCF7 cells assessed as decrease in cell survival after 72 hrs by MTT assay; type: functional, cell-based; settings: for IC50: MCF7, 72 h
[20] = system: PC-3; test: Selectivity index, ratio of IC50 for human PBMC to IC50 for human PC3 cells
[21] = Selectivity index, ratio of IC50 for human PBMC to IC50 for human Fem-X cells
[22] = system: K562; test: Selectivity index, ratio of IC50 for PHA-stimulated human PBMC to IC50 for human K562 cells
[23] = system: Aorta; test: Cytotoxicity against rat aorta at < 10 uM in presence of potassium channel and calcium channel blocker; type: tissue-based

## CCCNCC(O)COc1ccccc1C(=O)CCc1ccccc1C(F)(F)F.Cl (racemic)
[1]
  Activity: Dose-dependent effect
[1]; read-out: IC50
  IC50: 23.3 µM
[1]; read-out: pIC50 (converted)
  IC50: 23.3 µM
[2]; read-out: IC50
  IC50: 18.6 µM
[2]; read-out: pIC50 (converted)
  IC50: 18.6 µM
[3]
  Activity: Dose-dependent effect
[4]
  Activity: Dose-dependent effect
[4]; read-out: IC50
  IC50: 8.8 µM
[4]; read-out: pIC50 (converted)
  IC50: 8.8 µM
[5]
  Ratio IC50: 2.39
[6]
  Ratio IC50: 4.58
[7]
  Ratio IC50: 5.05
[8]
  Activity: Dose-dependent effect
[8]; read-out: IC50
  IC50: 6.78 µM
[8]; read-out: pIC50 (converted)
  IC50: 6.78 µM
[9]
  Ratio IC50: 3.66
[10]
  Ratio IC50: 6.55
[11]
  IC50: 35.5 µM
[12]
  Ratio IC50: 2.2
[13]
  Ratio IC50: 1.91
[14]
  IC50: 44.4 µM
[15]
  Activity: Dose-dependent effect
[16]; read-out: IC50
  IC50: 16.1 µM
[16]; read-out: pIC50 (converted)
  IC50: 16.1 µM
[17]
  Ratio IC50: 5.24
[18]
  Ratio IC50: 1.52
[19]
  Activity: Dose-dependent effect
[19]; read-out: IC50
  IC50: 9.7 µM
[19]; read-out: pIC50 (converted)
  IC50: 9.7 µM
[20]
  Ratio IC50: 1.91
[21]
  Ratio IC50: 2.76
[22]
  Ratio IC50: 4.03

## CCCNCC(O)COc1ccccc1C(=O)CCc1ccccc1Cl.Cl (racemic)
[1]
  Activity: Dose-dependent effect
[1]; read-out: IC50
  IC50: 12.6 µM
[1]; read-out: pIC50 (converted)
  IC50: 12.6 µM
[2]; read-out: IC50
  IC50: 11.2 µM
[2]; read-out: pIC50 (converted)
  IC50: 11.2 µM
[3]
  Activity: Dose-dependent effect
[4]
  Activity: Dose-dependent effect
[4]; read-out: IC50
  IC50: 6 µM
[4]; read-out: pIC50 (converted)
  IC50: 6 µM
[5]
  Ratio IC50: 5.31
[6]
  Ratio IC50: 2.95
[7]
  Ratio IC50: 9.91
[8]
  Activity: Dose-dependent effect
[8]; read-out: IC50
  IC50: 3 µM
[8]; read-out: pIC50 (converted)
  IC50: 3 µM
[9]
  Ratio IC50: 2.62
[10]
  Ratio IC50: 19.83
[11]
  IC50: 52.9 µM
[12]
  Ratio IC50: 10.8
[13]
  Ratio IC50: 4.72
[14]
  IC50: 59.5 µM
[15]
  Activity: Dose-dependent effect
[16]; read-out: IC50
  IC50: 4.9 µM
[16]; read-out: pIC50 (converted)
  IC50: 4.9 µM
[17]
  Ratio IC50: 17.63
[18]
  Ratio IC50: 4.2
[23]
  Activity: Not Active
[19]
  Activity: Dose-dependent effect
[19]; read-out: IC50
  IC50: 20.2 µM
[19]; read-out: pIC50 (converted)
  IC50: 20.2 µM
[20]
  Ratio IC50: 4.72
[21]
  Ratio IC50: 12.14
[22]
  Ratio IC50: 8.82
